Data taken from PubChem BioAssay (NCI).
Where “and” joins values, the source holds several entries; their conditions need not be identical. Equal values may be shown once.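 Assay format: 96-well plates, 48-hour exposure. The concentration for 50% growth inhibition is given as GI50. At the TGI there is no net growth.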 Where a SMILES comes first, the peptide text is derived from it. [ ]: non-standard residue; d: D form. The star is where a group is joined. ξ: configuration not given here. X3 = COc1ccc(C(N*)c2ccc(OC)cc2)cc1; NMeF = CN[C@@H](Cc1ccccc1)C(=O)O; NMeD = CN[C@@H](CC(=O)O)C(=O)O; NMeV = CN[C@H](C(=O)O)C(C)C; ξNMeV = CNC(C(=O)O)C(C)C; Boc = CC(C)(C)OC(=O)*; ξNMeA = CNC(C)C(=O)O; ξV = CC(C)C(N)C(=O)O

Columns and labels:
Experiment in all cases: NCI anticancer screen, dose series, 48 h
[1] = system: ACHN renal
[2] = system: CAKI-1 renal
[3] = system: HCT-15 colon
[4] = system: K-562 leukemia
[5] = system: M14 melanoma
[6] = system: MDA-MB-231 breast
[7] = system: OVCAR-8 ovarian
[8] = system: SN12C renal
[9] = system: SNB-75 CNS
[10] = system: SR leukemia

Compound | GI50 [1] [µM] | TGI [1] | GI50 [2] [µM] | TGI [2] [µM] | GI50 [3] [µM] | TGI [3] | GI50 [4] [µM] | TGI [4] | GI50 [5] [µM] | TGI [5] | GI50 [6] [µM] | TGI [6] [µM] | GI50 [7] [µM] | TGI [7] | GI50 [8] [µM] | TGI [8] | GI50 [9] [µM] | TGI [9] | GI50 [10] [µM] | TGI [10]
COc1ccc2nc3cc(Cl)ccc3c(NCCNCC(C)O)c2c1 (configuration not stated) | 1.43 | 7.22 µM | 1.57 | 4.54 | 1.21 | 4.36 µM | 1.28 | 10 µM | 1.68 | 3.6 µM | 1.49 | 4.28 | 1.94 | 7.65 µM | 1.85 | 7.4 µM | 1.9 | 8.71 µM | 1.09 | 8.04 µM
Nc1n[nH]c2cc(F)c([C@@H]3Nc4ccc5[nH]ncc5c4[C@H]4C5CCC(C5)[C@@H]34)cc12 (some centres not stated) | 0.231 | 26.1 µM | 0.132 | 7.43 | 0.159 | 9.04 µM | 0.103 | > 50 µM | 0.147 | 12.3 µM | 0.2 | 7.86 | 0.193 | > 30.6 µM | 0.228 | 37.1 µM | 0.0988 | 1.12 µM | 0.125 | > 50 µM
N#Cc1c[nH]n2c(N=Nc3ccc(Cl)cc3)c(O)nc12 | 24.7 | 62 µM | 85.9 | > 100 | 22 | 62.9 µM | 26.4 | > 100 µM | 77.3 | > 100 µM | 16.2 | > 100 | 32 | > 100 µM | 24.1 | 57.3 µM | 40.7 | > 100 µM | 25.4 | > 100 µM
CC1SC(c2ccc(F)cc2)N(NC(=O)C(O)c2ccccc2)C1=O (configuration not stated) | > 100 | > 100 µM | > 100 | > 100 | > 100 | > 100 µM | > 100 | > 100 µM | > 100 | > 100 µM | > 100 | > 100 | > 100 | > 100 µM | > 100 | > 100 µM | > 100 | > 100 µM | > 100 | > 100 µM
Cc1nnc(NC(=O)c2nc(S(=O)(=O)Cc3ccc(F)cc3)ncc2Cl)s1 | 1.94 | 3.68 µM | 1.78 | 3.24 | 1.84 | 3.91 µM | 1.77 | 4.52 µM | 2.88 | 10.3 µM | 1.78 | 3.31 | 2.72 | 7.77 µM | 2.39 | 6.56 µM | 3.25 | 17.6 µM | 1.44 | 3.55 µM
CCOC(=O)C1=C(C)N(c2ccc(F)cc2F)[C@]2(C#N)C(O)=C(Cl)C(Cl)=C(O)[C@]12C#N | > 100 | > 100 µM | > 100 | > 100 | > 100 | > 100 µM | 88 | > 100 µM | > 100 | > 100 µM | > 100 | > 100 | > 100 | > 100 µM | > 100 | > 100 µM | > 100 | > 100 µM | 34.5 | 95.9 µM
COc1cccc(C(=O)NC(c2ccc(C)cc2)c2cc(Cl)c3cccnc3c2O)c1 (configuration not stated) | 0.445 | 10.4 µM | 0.465 | 15.8 | 0.309 | 28.2 µM | 0.466 | 54.8 µM | 0.677 | 10.8 µM | 0.612 | 15.4 | 0.476 | 26.7 µM | 0.661 | 13.2 µM | 0.326 | 11.9 µM | 0.538 | 5.66 µM
O=[N+]([O-])c1ccc(Cl)cc1N/N=C/c1ccnc2ccccc12 |  | > 100 µM |  | > 100 |  | > 100 µM |  | > 100 µM |  | > 100 µM |  | > 100 |  | > 100 µM |  | > 100 µM |  | > 100 µM |  | > 100 µM
CCOC(=S)SCC(=O)O |  | > 100 µM |  | > 100 |  | > 100 µM |  | > 100 µM |  | > 100 µM |  | > 100 |  | > 100 µM |  | > 100 µM |  | > 100 µM |  | > 100 µM
CN(C)c1cc(NN=C(c2ccc(O)cc2)c2ccc(O)cc2)c([N+](=O)[O-])cc1[N+](=O)[O-] | 2.36 | 13.3 µM | 6.76 | 20.2 | 4.02 | 17.7 µM | 3.61 | > 100 µM | 9.06 | 22.6 µM | 4.72 | 17.5 | 7.73 | 46.5 µM | 10.4 | 23.7 µM | 10.4 | 25 µM | 3.15 | 22.8 µM
CCN(Cc1ccc(F)cc1)c1cc(Cl)c(CO)c(Cl)c1 | 14.9 | 29.2 µM | 13.5 | 32.1 | 15.7 | 36.6 µM | 15.9 | 51.6 µM | 17 | 35 µM | 13 | 26.7 | 14.3 | 31.3 µM | 13.3 | 26.8 µM | 12.8 | 25.9 µM | 15.4 | 39.6 µM
Nc1cc(NN=C(c2ccc(O)cc2)c2ccc(O)cc2)c([N+](=O)[O-])cc1[N+](=O)[O-] | 1.86 | 5.55 µM | 1.88 | 5.24 | 1.78 | 4.13 µM | 3.62 | 31.7 µM | 1.71 | 3.49 µM | 2.22 | 5.38 | 3.12 | 15.1 µM | 1.58 | 3.4 µM | 1.45 | 3.92 µM | 2.03 | 7.48 µM
O=C(Nc1ccc(Oc2ccc(Nc3nc4ccccc4s3)cc2)cc1)Nc1ccc(Cl)c(C(F)(F)F)c1 | 1.51 | 5.49 µM | 2.05 | 7.98 | 1.54 | 3.44 µM | 2.51 | 14.2 µM | 1.46 | 3.13 µM | 1.37 | 2.86 | 2.22 | 7.29 µM | 1.42 | 3.03 µM | 1.41 | 5.27 µM | 1.32 | 5.81 µM
O=C(CCCSc1nc(-c2ccccc2)cc(-c2ccccc2)n1)NO | 0.358 | 1.5 µM | 0.516 | 6.46 | 0.408 | 11.8 µM | 0.983 | 18.9 µM | 0.927 | 5.29 µM | 1.99 | 7.72 | 0.484 | 18.3 µM | 1.94 | 9.1 µM | 1.68 | 9.55 µM | 0.38 | 20.5 µM
COc1ccc(C(NC(=O)C[C@@H](C(=O)N(C)C(C)C(=O)O)N(C)C(=O)[C@@H]2CCCN2C(=O)[C@H](C(C)C)N(C)C(=O)C(C(C)C)N(C)C(=O)[C@H](Cc2ccccc2)N(C)C(=O)C(NC(=O)OC(C)(C)C)C(C)C)c2ccc(OC)cc2)cc1 (some centres not stated) (Boc-[ξV][NMeF][ξNMeV][NMeV]P[NMeD](X3)[ξNMeA]-OH) | 10.6 | 37.5 µM and 22.5 µM | 22.9 | 37.5 | 18.2 | 37.5 µM and 33.3 µM | 18.9 | 26.9 µM and 43.8 µM | 17.4 | 28.6 µM and 31.1 µM |  | 32.3 | 19.1 | 37.5 µM and 33.7 µM | 19.1 | 37.5 µM and 38.9 µM | 15.8 | 17.6 µM and 30.7 µM | 0.00375 | 37.5 µM and 36 µM
C[C@]12CCC3c4ccc(O)cc4CCC3C1CC[C@@]2(O)CNC(=O)/C=C/c1ccc(O)c(O)c1 (some centres not stated) | 2.41 | 6.14 µM | 11.7 | 33 | 4.33 | 16.8 µM | 3.38 | 12.6 µM | 10.1 | 22.5 µM | 3.58 | 16.4 | 2.65 | 17.1 µM | 7.54 | 20.6 µM | 13.2 | 29 µM | 5.66 | 26.7 µM
CCC(=C/[C@H](C)C/C=C/C(C)=C/[C@@H](C)C(=O)[C@@H](C)[C@H](O)[C@@H](C)CC)/C=C/[C@H]1OC(=O)C=C[C@@H]1C | < 0.01 | 0.566 µM | < 0.01 | 0.327 | < 0.01 | 1.28 µM | < 0.01 |  | < 0.01 | 0.193 µM | < 0.01 | 2.18 | < 0.01 | 10.3 µM | < 0.01 | 1.27 µM | < 0.01 | 0.655 µM | < 0.01 | 
COCCOc1ccc(-c2nc3ccc(-c4nc5ccc(N6CCN(C)CC6)cc5[nH]4)cc3[nH]2)cc1 | 10.7 | > 100 µM | 2.25 | > 100 | 38.7 | > 100 µM | 0.911 | > 100 µM | 0.449 | 2.5 µM | 2.25 | 6.49 | 0.931 | 23.4 µM | 1.42 | 11.8 µM | 0.486 | 3.14 µM | 0.5 | 21.9 µM
